The NIST ThermoML archive (doi:10.1021/je800101v)
± gives the expanded uncertainty stated by the source.

Experiment: xn = mol fraction of the nth substance listed
Details: Ring tensiometer

CCCCCCCO [heptan-1-ol] + OCCO
surface tension liquid-gas [mN/m]
Details	298.15 K	303.15 K	308.15 K	313.15 K	318.15 K
x1 = 0.0559	29.24 ± 0.45	29.16 ± 0.45	28.96 ± 0.45	28.78 ± 0.45	28.64 ± 0.45
x1 = 0.1059	27.73 ± 0.44	28.02 ± 0.44	27.88 ± 0.44	27.71 ± 0.44	27.55 ± 0.44
x1 = 0.1508	27.18 ± 0.43	27.66 ± 0.44	27.55 ± 0.44	27.42 ± 0.44	27.28 ± 0.43
x1 = 0.1914	27.05 ± 0.43	27.54 ± 0.44	27.21 ± 0.43	27.06 ± 0.43	26.91 ± 0.43
x1 = 0.2512	26.93 ± 0.43	27.36 ± 0.43	26.98 ± 0.43	26.81 ± 0.43	26.67 ± 0.43
x1 = 0.3027	26.78 ± 0.43	27.2 ± 0.43	26.84 ± 0.43	26.71 ± 0.43	26.57 ± 0.43
x1 = 0.3559	26.67 ± 0.43	27.07 ± 0.43	26.69 ± 0.43	26.53 ± 0.43	26.35 ± 0.42
x1 = 0.4085	26.57 ± 0.43	26.89 ± 0.43	26.65 ± 0.43	26.42 ± 0.43	26.28 ± 0.42
x1 = 0.4532	26.41 ± 0.43	26.77 ± 0.43	26.57 ± 0.43	26.32 ± 0.42	26.16 ± 0.42
x1 = 0.4966	26.32 ± 0.42	26.67 ± 0.43	26.42 ± 0.43	26.23 ± 0.42	26.07 ± 0.42
x1 = 0.5502	26.25 ± 0.42	26.6 ± 0.43	26.24 ± 0.42	26.07 ± 0.42	25.91 ± 0.42
x1 = 0.5999	26.17 ± 0.42	26.48 ± 0.43	26.12 ± 0.42	25.92 ± 0.42	25.78 ± 0.42
x1 = 0.6369	26 ± 0.42	26.39 ± 0.42	26.09 ± 0.42	25.83 ± 0.42	25.65 ± 0.42
x1 = 0.6928	26.08 ± 0.42	26.31 ± 0.42	26.01 ± 0.42	25.68 ± 0.42	25.52 ± 0.42
x1 = 0.7246	26.01 ± 0.42	26.25 ± 0.42	25.91 ± 0.42	25.62 ± 0.42	25.48 ± 0.42
x1 = 0.7978	25.92 ± 0.42	26.18 ± 0.42	25.85 ± 0.42	25.52 ± 0.42	25.37 ± 0.41
x1 = 0.8403	25.83 ± 0.42	26.12 ± 0.42	25.78 ± 0.42	25.51 ± 0.42	25.31 ± 0.41
x1 = 0.8875	25.71 ± 0.42	26.07 ± 0.42	25.68 ± 0.42	25.45 ± 0.42	25.21 ± 0.41
x1 = 0.9404	25.62 ± 0.42	26.02 ± 0.42	25.62 ± 0.42	25.45 ± 0.42	25.14 ± 0.41

CCCCCO [pentan-1-ol] + OCCO
surface tension liquid-gas [mN/m]
Details	298.15 K	303.15 K	308.15 K	313.15 K	318.15 K
x1 = 0.0488	35.01 ± 0.52	34.4 ± 0.51	33.65 ± 0.5	33.18 ± 0.5	32.85 ± 0.49
x1 = 0.0931	32.1 ± 0.49	30.89 ± 0.47	30.71 ± 0.47	30.51 ± 0.47	30.37 ± 0.47
x1 = 0.1523	29.93 ± 0.46	29.14 ± 0.45	29.25 ± 0.45	29.05 ± 0.45	28.87 ± 0.45
x1 = 0.2043	29.26 ± 0.46	28.56 ± 0.45	28.41 ± 0.45	28.27 ± 0.44	28.09 ± 0.44
x1 = 0.2502	28.35 ± 0.45	27.94 ± 0.44	27.81 ± 0.44	27.67 ± 0.44	27.51 ± 0.44
x1 = 0.2912	28.04 ± 0.44	27.65 ± 0.44	27.51 ± 0.44	27.35 ± 0.43	27.17 ± 0.43
x1 = 0.3503	27.01 ± 0.43	27.05 ± 0.43	26.91 ± 0.43	26.8 ± 0.43	26.68 ± 0.43
x1 = 0.4094	27.39 ± 0.44	26.62 ± 0.43	26.48 ± 0.43	26.31 ± 0.42	26.18 ± 0.42
x1 = 0.4586	26.71 ± 0.43	26.19 ± 0.42	25.98 ± 0.42	25.82 ± 0.42	25.69 ± 0.42
x1 = 0.5003	26.75 ± 0.43	25.77 ± 0.42	25.61 ± 0.42	25.43 ± 0.41	25.27 ± 0.41
x1 = 0.552	26.53 ± 0.43	25.39 ± 0.42	25.21 ± 0.41	25.02 ± 0.41	24.91 ± 0.41
x1 = 0.5982	25.71 ± 0.42	25.15 ± 0.41	24.98 ± 0.41	24.81 ± 0.41	24.68 ± 0.41
x1 = 0.6425	26.32 ± 0.43	24.96 ± 0.41	24.79 ± 0.41	24.67 ± 0.41	24.53 ± 0.41
x1 = 0.6979	26.21 ± 0.43	24.75 ± 0.41	24.57 ± 0.41	24.41 ± 0.4	24.25 ± 0.4
x1 = 0.7197	26.12 ± 0.43	24.63 ± 0.41	24.51 ± 0.41	24.37 ± 0.4	24.19 ± 0.4
x1 = 0.7739	25.98 ± 0.42	24.35 ± 0.41	24.18 ± 0.4	23.98 ± 0.4	23.82 ± 0.4
x1 = 0.837	24.89 ± 0.41	24.23 ± 0.4	24.15 ± 0.4	23.92 ± 0.4	23.78 ± 0.4
x1 = 0.9113	25.45 ± 0.42	24.13 ± 0.4	24 ± 0.4	23.81 ± 0.4	23.65 ± 0.4
x1 = 0.9536	25.25 ± 0.42	24.02 ± 0.4	23.89 ± 0.4	23.75 ± 0.4	23.61 ± 0.4
